Data published in patent publication US20020016358A1, “Cosmetic composition” (NOF CORPORATION, priority 2000, published 2002).

Columns and labels:
UV-induced pigmentation = assay: Suppression of UV-induced pigmentation in brown guinea pigs; format: in vivo; settings: 40 μl twice a day, after UV 0.5 J/cm2; for Pigmentation degree ΔL, After 40 days: no addition −5.2; for Pigmentation degree ΔL, After 20 days: no addition −7.8
Procedure: (Confirmation of Whitening Effect-2: Suppression of UV-induced Pigmentation)
Using brown guinea pigs, the suppression of UV-induced pigmentation was examined in vivo. More specifically, the backs of the brown guinea pigs were shaved and covered with an ultraviolet shielding plate provided with 6 rectangular holes of 2×2 cm, followed by irradiation of UV (0.5 J/cm^2) to induce pigmentation. Thereafter, 40 μl of 70% (W/W) ethanol aqueous solution containing each of polymethoxyflavone (nobiletin) of formula (III) or polymethoxyflavone (tangeretin) of formula (IV) in a concentration shown in Table 2 were applied twice a day. Then, the degrees of pigmentation before and after the application were measured.
In Table 2, the pigmentation degree ΔL was obtained by measuring a L value before UV irradiation, which is defined as 0, with a spectrophotometric calorimeter, and obtaining the difference between the L values before and after UV irradiation. A lower value ΔL corresponds to a higher pigmentation degree.

[1] = test system: human melanoma cell (HM3KO); assay: Suppression of melanin formation in human melanoma cell (HM3KO); format: cell-based; settings: sample 10 μM in medium, cultivation 6 days, absorbance 410 nm of cell lysate, no addition = 100%
Procedure: (Confirmation of Whitening Effect-1: Suppression of Melanin Formation) Using the obtained compounds of formulae (II) to (V), the effect of suppressing melanin production of human melanoma cell (HM3KO) was examined in vitro. More specifically, HM3KO was cultured to about 5×10^5 by a conventional method, collected by centrifugation to obtain pellets, and inoculated the pellet to a culture dish of 10 cm diameter containing an Eagle's medium supplemented with 10% fetal bovine serum and cultured at 37° C. for 24 hours. Thereafter, each polymethoxyflavone of formulae (II) to (V) was added, or kojic acid or arbutin for comparison was added thereto so that the final addition concentration was 10 μM, followed by cultivation for 6 days. After the cultivation, cells were collected by centrifugation, and 1 ml of 2N sodium hydroxide aqueous solution was added thereto to obtain cell lysate. The absorbance in a wavelength of 410 nm of the cell lysate was measured with a spectrophotometer. Here, the absorbance of the cell lysate to which a sample is not added is defined as 100% of the melanin production ratio, and the melanin production ratios are shown as relative values, measuring the absorbance of each cell lysate.

[2] = sample concentration 0.4% in 70% ethanol
[3] = sample concentration 4% in 70% ethanol, lower ΔL = more pigmentation
[4] = sample concentration 4% in 70% ethanol

COc1ccc(-c2cc(=O)c3c(OC)c(OC)c(OC)c(OC)c3o2)cc1 [formula (IV), 5,6,7,8,4′-pentamethoxyflavone]
Pigmentation degree ΔL, After 40 days (UV-induced pigmentation; [2]): −3.5
Pigmentation degree ΔL, After 20 days (UV-induced pigmentation; [2]): −6.1
Pigmentation degree ΔL, After 20 days (UV-induced pigmentation; [3]): −5.6
Pigmentation degree ΔL, After 40 days (UV-induced pigmentation; [4]): −3.3
Melanin production ratio (% of control) [1]: 55 % of control

O=c1cc(CO)occ1O [Kojic acid, reference compound]
Melanin production ratio (% of control) [1]: 96 % of control

OC[C@H]1O[C@@H](Oc2ccc(O)cc2)[C@H](O)[C@@H](O)[C@@H]1O [Arbutin, reference compound]
Melanin production ratio (% of control) [1]: 97 % of control

COc1ccc(-c2cc(=O)c3c(OC)cc(OC)c(OC)c3o2)cc1OC [formula (V), 5,7,8,3′,4′-pentamethoxyflavone]
Melanin production ratio (% of control) [1]: 60 % of control

COc1ccc(-c2oc3c(OC)c(OC)c(OC)c(OC)c3c(=O)c2OC)cc1OC [formula (II), 3,5,6,7,8,3′,4′-heptamethoxyflavone]
Melanin production ratio (% of control) [1]: 65 % of control

COc1ccc(-c2cc(=O)c3c(OC)c(OC)c(OC)c(OC)c3o2)cc1OC [formula (III), 5,6,7,8,3′,4′-hexamethoxyflavone]
Pigmentation degree ΔL, After 40 days (UV-induced pigmentation; [2]): −3.2
Pigmentation degree ΔL, After 20 days (UV-induced pigmentation; [2]): −5.5
Pigmentation degree ΔL, After 20 days (UV-induced pigmentation; [3]): −5.1
Pigmentation degree ΔL, After 40 days (UV-induced pigmentation; [4]): −1.9
Melanin production ratio (% of control) [1]: 35 % of control
